The term AUC denotes concentration integrated over time. The low end stands for low exposure, the high end for high exposure. A word on the IC50: it is the concentration that gives 50% inhibition.

Here are results for three compounds from US10815233B2, “Dihydroindolizinone derivative” (ONO PHARMACEUTICAL CO., LTD., priority 2014, dated 2020).

The structures appear in SMILES notation.

Series [1] is described as follows: Pharmacokinetic (PK) tests in rats. The series is classed as in vivo. As to conditions: for concentration at 8 h: male, Crj:CD(SD), oral, 8 hours after administration, read-out: Plasma concentration C8h; for concentration at 8 h / AUC: rat, plasma; for concentration at 8 h / APTT × 2 maintaining time / C8h/APTT × 2: rats; for concentration at 8 h / AUC / C8h/APTT × 2: 1 mg/kg per os; for AUC: po, fasted male Crj:CD(SD) rats; for APTT × 2 maintaining time: 1 mg/kg orally, period when plasma concentration exceeded APTT×2; for C8h/APTT × 2: C8h divided by APTT×2. As to the method:
The compound of the present invention was administered to fasted male Crj:CD(SD) rats by intravenous injection as a single intravenous dose of 0.1 mg/kg (vehicle: 20% HP-β-CD solution) and by forced oral dosage as a dose of 1 mg/kg per os (vehicle: 0.5% methylcellulose solution). Blood samples were collected from cervical vein into heparinized syringes at 0.08, 0.25, 0.5, 1, 3 or 7 hours after administration by intravenous injection or 0.08, 0.25, 0.5, 1, 2, 4, 6, 8 or 24 hours after oral administration. Plasma was obtained by centrifugation, and plasma was stored at −20° C. until measurement of plasma concentration.
In order to measure the plasma concentration of the compound of the present invention, the plasma sample was subjected to deproteinization by using acetonitrile, was filtrated by using a filter, and thereafter, was diluted with purified water, and then was analyzed by LC/MS/MS. A column for analysis (Shim-pack XR-ODSII, 2.0 mm×75 mm, 2.2 μm) and mobile phases (0.1% formic acid in water and 0.1% formic acid in acetonitrile, flow rate: 0.5 mL/min) were used. The system was used by detection of cations in the Multiple Reaction Monitoring (MRM) mode.
The area under the blood concentration versus time curve (AUC) and the bioavailability (BA) of the compound of the present invention were calculated. In addition, as indices of the maintaining time of the anticoagulation activity in the case of oral administration, AUC/APTT×2, which is obtained by dividing AUC by APTT×2, and C8h/APTT×2, which is obtained by dividing C8h (the plasma concentration at 8 hours after administration) by APTT×2, were calculated.
In addition, the period of time when the compound concentration in plasma of the compound of the present invention exceeded APTT×2 (the APTT×2 maintaining time) was calculated from the change in the compound concentration in plasma in the case when the compound of the present invention was orally administered at a dose of 1 mg/kg. The longer the APTT×2 maintaining time is, the longer the period of time is when the anticoagulation activity is maintained after oral administration.

The target of series [2] is T1, human blood coagulation factor XIa (Homo sapiens, UniProt P03951).
T1 construct: human blood coagulation factor XIa (Haematologic Technologies Inc.); purchased Haematologic Technologies Inc
Description: Inhibitory activity on human blood coagulation factor XIa (chromogenic substrate S-2366). The class given is biochemical. As to conditions: chromogenic substrate S-2366, 37° C.; read-out: FXIa inhibitory activity IC50. On the procedure: Inhibitory activities of the compound of the present invention on human blood coagulation factor XIa, factor VIIa, factor IXa, factor Xa, factor XIIa, plasma kallikrein and thrombin were evaluated. A chromogenic substrate solution was added to each of enzyme solutions, the absorbance at 405 nm was measured continuously at 37° C. for 5 minutes at intervals of 15 seconds, and the decomposition rate of each of substrates (mOD/min) was calculated. The half maximal (50%) inhibitory concentration (IC50) of the compound of the present invention on each of the enzymes was calculated by linear regression by using least-squares method from the concentration of the compound of the present invention which was converted in terms of natural logarithm and the rate of enzyme inhibition calculated according to the following equation.
The rate of enzyme inhibition (%) of the compound of the present invention was calculated by using the following equation: Rate of enzyme inhibition (%)=100×{(Cont(e)−BL(e))−(Comp(e)−BL(e))/(Cont(e)−BL(e))}
Cont (e): Decomposition rate of substrate (mOD/min) when enzyme solution and substrate solution were added to physiological saline containing 5% dimethyl sulfoxide
Comp (e): Decomposition rate of substrate (mOD/min) when enzyme solution and substrate solution were added to physiological saline containing 5% dimethyl sulfoxide and the compound of the present invention
The inhibitory activity on human blood coagulation factor XIa (Haematologic Technologies Inc.) was measured by using the enzyme solution adjusted to 0.1 U/mL by a buffer solution containing 300 mM of NaCl, 10 mM of KCl, 2 mg/mL of PEG 6000 and 100 mM of HEPES-NaOH (pH 7.4) as well as S-2366 (pyroglu-Pro-Arg-pNA, CHROMOGENIX) adjusted to 1 mM by distilled water.

In the next series the test system is standard human plasma. Description: Activated partial thromboplastin time (APTT) in standard human plasma. The series is classed as biochemical. As to conditions: concentration required for doubling the coagulation time vs vehicle (1% DMSO). As to the method: Activated partial thromboplastin time (APTT) and prothrombin time (PT) were measured by using a fully automatic device for measuring blood coagulation (CA-1500, Sysmex Corporation). On APTT or PT measurement, standard human plasma for the blood coagulation tests (Siemens Healthcare Diagnostics GmbH) was mixed with a diluted solution of the compound of the present invention, and thereafter, APTT reagent (Siemens Healthcare Diagnostics GmbH) and 0.02 M of calcium chloride or PT reagent (Siemens Healthcare Diagnostics GmbH) were automatically added to the mixture in order to initiate clot formation. The anticoagulation activity (APTT×2 or PT×2) of the compound of the present invention was expressed as a concentration required for doubling the coagulation time in the vehicle (1% DMSO) group. APTT×2 or PT×2 was determined by plotting the concentration of the compound of the present invention against a twofold increase in the coagulation time.

T1 sequence (P03951 388-625 limits assumed): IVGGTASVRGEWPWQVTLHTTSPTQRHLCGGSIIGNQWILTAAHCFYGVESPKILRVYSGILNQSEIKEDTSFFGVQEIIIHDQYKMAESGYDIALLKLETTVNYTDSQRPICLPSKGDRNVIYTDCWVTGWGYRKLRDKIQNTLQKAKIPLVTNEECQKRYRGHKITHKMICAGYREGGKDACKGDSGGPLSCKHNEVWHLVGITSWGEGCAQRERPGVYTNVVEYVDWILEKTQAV
T1 sequence (P03951 19-387 partner limits assumed): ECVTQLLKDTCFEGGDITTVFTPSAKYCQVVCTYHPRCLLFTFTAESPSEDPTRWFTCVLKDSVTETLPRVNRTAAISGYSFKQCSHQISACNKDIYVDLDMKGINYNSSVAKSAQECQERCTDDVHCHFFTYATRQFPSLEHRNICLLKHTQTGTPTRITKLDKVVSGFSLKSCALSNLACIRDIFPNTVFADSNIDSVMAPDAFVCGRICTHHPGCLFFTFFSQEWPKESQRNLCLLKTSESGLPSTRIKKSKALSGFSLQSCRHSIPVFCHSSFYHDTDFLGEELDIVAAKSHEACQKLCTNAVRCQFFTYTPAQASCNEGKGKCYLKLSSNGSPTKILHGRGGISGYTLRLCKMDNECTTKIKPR

Turning to `Nc1ccc(-c2nc(F)c([C@@H]3CCc4cc(-c5cc(Cl)ccc5-n5cnnn5)cc(=O)n43)[nH]2)c(F)n1` [Example 2 (10), (3S)-3-[2-(6-Amino-2-Fluoro-3-Pyridinyl)-4-Fluoro-1H-Imidazol-5-Yl]-7-[5-Chloro-2-(1H-Tetrazol-1-Yl)Phenyl]-2,3-Dihydro-5(1H)-Indolizinone], in series [1], the concentration at 8 h worked out at 1000 nM, the AUC was determined as 15 µM·h, the “APTT × 2 maintaining time” value is more than 8 h and the “C8h/APTT × 2” value is 2.1. Besides, the IC50 in series [2] was 1.7 nM. For the same compound, the “APTT ×” value in the series with standard human plasma was found to be 0.49 µM.

As to `Nc1ccc(-c2nc(F)c([C@@H]3CCc4nc(-c5cc(Cl)ccc5-n5cnnn5)cc(=O)n43)[nH]2)c(F)n1` [Example 3 (4), (6S)-6-[2-(6-Amino-2-Fluoro-3-Pyridinyl)-4-Fluoro-1H-Imidazol-5-Yl]-2-[5-Chloro-2-(1H-Tetrazol-1-Yl)Phenyl]-7,8-Dihydropyrrolo[1,2-a]Pyrimidin-4(6H)-One], in series [1], the concentration at 8 h turned out to be 1600 nM, the AUC was determined as 28 µM·h, the “APTT × 2 maintaining time” value was more than 8 h and the “C8h/APTT × 2” value stood at 3.4. Moreover, the IC50 in series [2] came to 1.9 nM. In addition, in the series with standard human plasma, the “APTT ×” value was found to be 0.47 µM.

Take `N#Cc1cn(-c2ccc(Cl)cc2-c2cc3n(c(=O)c2)[C@H](c2nc(F)c(-c4ccc(N)cc4)[nH]2)CC3)nn1` [Example 4 (10), 1-(2-{(3S)-3-[5-(4-aminophenyl)-4-fluoro-1H-imidazol-2-yl]-5-oxo-1,2,3,5-tetrahydro-7-indolizinyl}-4-chlorophenyl)-1H-1,2,3-triazole-4-carbonitrile]: in series [1], the concentration at 8 h is 2500 nM, the AUC is 45 µM·h, the “APTT × 2 maintaining time” value was more than 8 h and the “C8h/APTT × 2” value is 1.4. The IC50 in series [2] amounted to 5.4 nM. For the same compound, the “APTT ×” value in the series on standard human plasma amounted to 1.8 µM.
